Where “and” joins values, the source holds several entries; their conditions need not be identical. Equal entries are not always repeated. Where two headings read alike, the source gives them in different places.
Target: T1, DrOTOP1 G130W/A388W (Danio rerio, UniProt Q7ZWK8, A388W/G130W)
T1 construct: A previously generated codon-optimized full-length DrOTOP1[8]; (UniProt: Q7ZWK8) construct; expressed in transfected cells; host or cells: HEK-293 (CRL-1573, ATCC)
T1 sequence (Q7ZWK8 1-586 G130W/A388W): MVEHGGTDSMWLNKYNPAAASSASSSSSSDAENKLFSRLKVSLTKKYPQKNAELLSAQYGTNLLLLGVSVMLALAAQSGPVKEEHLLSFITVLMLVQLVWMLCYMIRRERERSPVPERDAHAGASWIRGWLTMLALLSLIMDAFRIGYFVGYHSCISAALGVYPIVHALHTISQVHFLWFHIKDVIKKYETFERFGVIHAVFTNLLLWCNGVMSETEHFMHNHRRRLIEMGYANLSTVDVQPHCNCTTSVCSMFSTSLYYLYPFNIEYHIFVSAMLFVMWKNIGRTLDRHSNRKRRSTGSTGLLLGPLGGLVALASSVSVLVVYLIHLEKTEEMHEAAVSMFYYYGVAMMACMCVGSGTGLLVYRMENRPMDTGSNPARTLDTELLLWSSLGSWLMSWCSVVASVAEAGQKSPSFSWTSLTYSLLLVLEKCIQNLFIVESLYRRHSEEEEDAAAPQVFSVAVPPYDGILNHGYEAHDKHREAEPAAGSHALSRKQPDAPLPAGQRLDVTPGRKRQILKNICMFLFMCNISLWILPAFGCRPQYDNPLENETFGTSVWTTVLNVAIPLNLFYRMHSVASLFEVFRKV
Test: Whole-cell patch-clamp, inhibition of acid-evoked currents, DrOTOP1 G130W/A388W
Assay type: cell-based, zebrafish (Danio rerio)
Method: Given our limited success in identifying mutations of the central site that disrupt antagonism by C2.2, we tested whether mutations of the central site in a background of G130W (the most impactful outer site mutation) might unmask contributions of this site. Thus, we generated and tested double mutants of G130W with E384A, A274W, and A388W. […] We also measured the dose-dependence of inhibition by C2.2 for both G130W/A388W and G130W/E384A (Fig. 5I, J). […] G130W was tested in parallel to confirm that 100 and 300 μM C2.2 produced dose-dependent inhibition.
HEK-293 cells (CRL-1573, ATCC) were cultured in DMEM (Thermofisher 11995073) containing 10% fetal bovine serum (Life Technology 16000044) and Penicillin-Streptomycin (100 I.U./mL) and (100 µg/mL), respectively. Cells were transfected with WT DrOTOP1 or mutant DrOTOP1 channels in 35 mm petri dishes, with ~ 500 ng DNA and 2 μL TransIT-LT1 transfection reagent (Mirus Bio Corporation, Cat # MIR2300) following the manufacturer’s protocol. All constructs were subcloned into a pcDNA3.1 vector that adds an N-terminal fusion tag consisting of an octahistidine tag followed by eGFP, a Gly-Thr-Gly-Thr linker and a 3C protease cleavage site ([…]) followed by WT DrOTOP1, WT mOTOP1, WT hOTOP1, or mutated DrOTOP1. Point mutations were generated via In-Fusion Cloning (Takara) using single-stranded DNA primers generated through IDT and sequence confirmed by Sanger sequencing (GeneWiz).
Whole-cell patch-clamp recording was performed as previously described[6],[22],[25]. Recordings were made with an Axopatch 200B amplifier, digitized with a Digidata 1322a 16-bit data acquisition system, acquired with pClamp 8.2 and analyzed with Clampfit 10 (Molecular Devices). Recordings were sampled at 5 kHz and filtered at 1 kHz. Patch Pipettes with resistance of […] were fabricated from borosilicate glass, and only recordings with a giga-Ohm seal were used in analysis. Membrane potential was held at −80 mV for the duration of recordings. At the beginning of recordings and between, cells were washed with Tyrode’s solution (see below). Once a giga-Ohm seal was reached, cells were lifted and placed in front of microcapillary tubes controlled by a Fast-Step perfusion system (Warner Instruments) so that extracellular solutions could be rapidly exchanged during each experiment.
Standard Tyrode’s solution consisted of 145 mM NaCl, 5 mM KCl, MgCl2, 2 mM CaCl2, 20 mM D-Glucose, and 10 mM HEPES (for pH 7.4). All other extracellular patch-clamp solutions contained 160 mM NMDG-Cl, 2 mM CaCl2, and the following buffers: 10 mM HEPES (for pH 7.4), 10 mM MES (for pH 6.5-5.5), 10 mM CHES for pH 10, and 10 mM HomoPIPES for (pH 5.0). pH adjusted with HCl. When adding compounds to extracellular solutions, the concentration of DMSO in solution was never higher than 0.3%. The pipette contained intracellular solution made up of 120 mM Cs-aspartate, 15 mM CsCl, 2 mM Mg-ATP, 5 mM EGTA, 2.4 mM CaCl2 (100 nM free Ca^2+), and 10 mM HEPES with a pH of 7.3. All extracellular solution osmolarity was adjusted to 300 mOsm and intracellular osmolarity was adjusted to 290 mOsm.
All data are presented as mean ± SEM unless otherwise noted, and each data point represents an independent replicant. Inhibition of compounds was quantified as ((I2peak-I1)/(I2peak))*100, where I1 is the current immediately before wash-off and I2peak is the maximum recovered current (Supplementary Fig. 2). Hill coefficients were determined by the following equation: Y = Bmax*X^h/(Kd^h + X^h). Absolute IC50 was determined by the following equation: Fifty = (Top + Baseline)/2 Y = Bottom + (Top-Bottom)/(1 + ((Top-Bottom)/(Fifty-Bottom) − 1)*(AbsoluteIC50/X)^HillSlope). pH50 curves (Fig. 6G inset) were determined using the following equation: Y = Bottom + (Top-Bottom)/(1 + (EC/X)^HillSlope) where EC = EC50 control. Graphs with electrophysiological data were made in Graphpad Prism 10 (Graphpad Software Inc). […]

[1] = 100 µM, DrOTOP1 G130W/A388W, single cells

C=C(C)COc1ccccc1NC(=O)c1nc[nH]c1C [C2.2]
Inhibition of currents (10 µM, DrOTOP1 G130W/A388W, single cells or mean, mean): 1.543% | Inhibition of currents (10 µM, DrOTOP1 G130W/A388W, single cells or mean, single cells): 2.216% and 2.459% and 1.638% and 1.737% and 0.722% and 0.4878% | HillSlope (DrOTOP1 G130W/A388W): 1.10 | Reduction in sensitivity (IC50) compared with single mutant G130W (DrOTOP1 G130W/A388W): 3 fold and ~ 3 fold | IC50 (DrOTOP1 G130W/A388W, pH 5.5, read-out: IC50): 397 µM | HillSlope (G130W/A388W, best-fit value): 1.1 | LogAbsoluteIC50 (G130W/A388W, best-fit value): 2.599 | IC50 (G130W/A388W, best-fit value, Top = 100, Bottom = 0, read-out: AbsoluteIC50): 397 µM

O=C(/C(=N\O)c1ccccc1)c1ccccc1 [C11, benzil monoxime]
Inhibition of currents [1]: 63.5701% and 65.9051% and 61.9048% and 72.4545% and 68.6192% | inhibition at 100 µM [1]: 63.1%

From article PMC12549899 (Nature Communications, 2025)
